These results are taken from PMC11331448 (Journal of chemical information and modeling, 2024).

In this experiment the target is BChE (Homo sapiens, UniProt P06276). Conditions: BChE versus AChE inhibition, colorimetric kits.
Chain of BChE (P06276 29-602, species assumed): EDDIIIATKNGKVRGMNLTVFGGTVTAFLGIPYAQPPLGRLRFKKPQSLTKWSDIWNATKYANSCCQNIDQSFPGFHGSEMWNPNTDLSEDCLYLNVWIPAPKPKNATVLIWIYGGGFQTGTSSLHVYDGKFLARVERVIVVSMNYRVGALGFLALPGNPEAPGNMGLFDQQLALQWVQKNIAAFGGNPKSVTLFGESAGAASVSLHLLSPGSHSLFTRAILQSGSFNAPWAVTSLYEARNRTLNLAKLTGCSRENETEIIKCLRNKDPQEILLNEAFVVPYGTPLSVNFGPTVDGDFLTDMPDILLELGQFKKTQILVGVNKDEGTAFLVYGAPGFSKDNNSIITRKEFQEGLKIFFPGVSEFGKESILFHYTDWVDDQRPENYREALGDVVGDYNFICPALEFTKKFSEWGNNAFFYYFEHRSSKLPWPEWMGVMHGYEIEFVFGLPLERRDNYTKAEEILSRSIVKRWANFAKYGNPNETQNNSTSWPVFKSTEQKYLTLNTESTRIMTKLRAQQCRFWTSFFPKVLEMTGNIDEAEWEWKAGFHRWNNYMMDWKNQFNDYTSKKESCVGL

In the case of `OC(CN1CCCCC1)c1c[nH]c2ccccc12` (stereo not shown) [CPI7075, 1-(1H-indol-3-yl)-2-(piperidin-1-yl)ethanol], the “BChE selectivity in vitro” value was “selective BChE inhibitors”.
